Assays:
[1] = system: CREBH and ATF6 heterodimers; experiment: IP-Western blot of CREBH and ATF6 interaction in 293T cells; format: cell-based, human; details: 293T cells expressing flag-tagged CREBH; 8 hours after Tm treatment
Description: FIG. 11 depicts the synergistic interaction of CREBH with ATF6 to activate transcription of the major APR genes. (A) Luciferase reporter analysis of trans-activation effects of CREBH on promoters of the murine SAP gene and the human CRP gene in H2.35 cells. H2.35 cells in a 35 mm collagen-coated plate were co-transfected with a control vector or a CREBH expression vector (0.25 μg), the luciferase reporter (0.6 μg) and pcDNA3-LacZ (0.25 μg), and were then cultured in the absence or presence of Tm (5 μg/ml) for 10 hours. (B) CREBH-DN efficiently suppresses CREBH trans-activation on the murine SAP and the human CRP promoters. […] (C) Interaction between ATF6 and CREBH was determined by IP-Western blot analysis. […] Expression levels of CREBH in the transfected cells were determined by Western blot analysis of total cell lysates using the anti-flag antibody (lower panel). […]
For analysis of expression and cleavage of CREBH protein, total cell lysates were prepared from H2.35 cells or COS7 cells using Nonidet P-40 lysis buffer (1% NP-40, 50 mM Tris-HCl at pH 7.5, 150 mM NaCl, 0.05% SDS) supplemented with protease inhibitors (Complete Mini from Roche Applied Science), 0.1 mM sodium vanadate, and 1 mM sodium fluoride. […] The total cell lysate, membrane and nuclear fractions were subjected to SDS-PAGE and then analyzed by Western blot using anti-flag monoclonal antibody or other antibodies. […]

CRP = experiment: Serum CRP in CREBH knockdown and control RNAi mice (ELISA); format: in vivo, mouse; details: 24 hours after injection
Description: (A) Identification of CREBH knockdown mice by Northern blot analysis. Transgenic mice with empty vector lentivirus expressing GFP were used as controls. Total RNAs (15 μg/lane) were isolated from the livers of the CREBH RNAi or the control mice, and subjected to Northern blot analysis. A 260 bp GFP cDNA fragment and a 210 bp mouse CREBH cDNA fragment were used as probes for detecting levels of GFP mRNA and CREBH mRNA, respectively. Levels of ββ-actin mRNA were determined for control of sample loading. (B) Morphology of CREBH knockdown embryos. The embryos were collected at gestation stage E14.5. The paraffin-embedded embryo sections were stained with hematoxylin and eosin. Magnification: 20 X. (C) Northern blot analysis of levels of CREBH, CRP and SAP mRNA in the livers of the CREBH knockdown or the control mice. Levels of β-actin mRNA were determined for sample loading controls. (D-E) Serum levels of SAP and CRP in the CREBH knockdown and the siRNA control mice in response to IL6 plus IL1β LPS or Tm. CREBH knockdown and RNAi control mice at 3-months of age were challenged with recombinant mouse IL6 (25 ng/gram body weight) plus recombinant mouse IL1β (25 ng/gram body weight), LPS (3 μg/gram body weight) or Tm (2 mg/kg body weight). Serum levels of SAP and CRP in the mice were determined before injection and at 24 hours after IL6 plus IL1β, LPS or Tm injection. […]

Substance: tunicamycin [Tm]
- interaction between CREBH and ATF6 [1]: significantly increased
- increase of serum levels of CRP (CRP; control RNAi mice): approximately 2 fold
- increase of serum levels of CRP (CRP; treated CREBH knockdown mice): no such increase
